Data: US20120196858A1, “METHOD OF PROMOTING APOPTOSIS AND INHIBITING METASTASIS” (Poniard Pharmaceuticals ,Inc., priority 2009, published 2012)
Where two headings read alike, the source gives them in different places.

What was measured:
c-Src (pY416 Src) = target: T1, c-Src (pY416 Src) (Mus musculus, UniProt P05480); test: Phospho-specific immunoblotting of Src pY416 in 4T1 cells; format: cell-based, murine
T1 construct: endogenous in cells; host or cells: 4T1 murine mammary carcinoma cells

[1] = Pharmacodynamic (PD) evaluation in subcutaneous 4T1 tumors, single i.p. injection; format: in vivo, Balb/c mice; settings: Balb/c, mouse, intraperitoneal, 100 mg/kg i.p., 12 h
[2] = tested on: FAK and p130Cas phosphorylation in 4T1 tumors; test: as above; format: in vivo, Balb/c mice; settings: for maximal plasma levels: single injection
[3] = tested on: interleukin-6 (IL-6) production in 4T1 cells; test: IL-6 ELISA after TNFα stimulation; format: cell-based, murine; settings: 0.25 to 1.0 μM; TNFα 10 ng/ml, 24 h
Method: After 1 h, recombinant tumor necrosis factor-α (TNFα eBioScience) was added (10 ng/ml) and after 24 h, IL-6 levels in conditioned media were measured using anti-mouse IL-6 ELISA kit (eBioScience).

4T1 tumors [4] = test: Orthotopic 4T1 breast carcinoma model (breast fat pad)
Method: Immunohistochemistry: For the detection of apoptosis, sections (7 μm) were analyzed using a terminal deoxynucleotidyl transferase dUTP nick end labeling (TUNEL) kit (Roche). For CD45 staining, sections (7 μm) were fixed in 4% paraformaldehyde, rinsed in PBS, and blocked with a solution of PBS containing 5% BSA, 1% goat serum and 0.1% Triton X. FITC-conjugated anti-CD45 antibodies (Invitrogen) at 1 μg/ml in 5% BSA and PBS were incubated for 2 hours. FITC-conjugated IgG2b isotype antibodies (Invitrogen) at the same concentration were used as a negative control. […] Images were sequentially captured at 40× (UPLFL objective, 1.3 NA; Olympus) using a monochrome charge-coupled camera (ORCA ER; Hamamatsu), an inverted microscope (IX51; Olympus), and Slidebook software (v5.0, Intelligent Imaging). Images were pseudo-colored, overlaid, and merged using Photoshop CS3 (Adobe). Fluorescence quantitation was performed using Image J (v1.43).
Orthotopic breast cancer models: One million 4T1 or MDA-MB-231 cells in 10 μl PBS were injected into the T4 mammary fat pad of 8-10 week old mice using a Hamilton syringe. […] Tumors were measured every 3-4 days with digital vernier calipers and tumor volume (mm^3) was calculated using the formula: V=axb^2/2 (a=length, mm; b=width, m) Body weight was measured weekly to assess toxicity. Lungs, spleen, and primary tumors were surgically removed and weighed.
For 4T1 tumor metastasis analyses, lungs were rinsed in PBS, dorsal and ventral fluorescent images acquired using the OV100 Small Animal Imaging System (Olympus). For all images, a common threshold for mCherry fluorescence was set and lung metastatic burden was calculated by determining the average integrated pixel density for micro-tumors present in each lung using Image J software. Metastatic tumor burden (number of metastatic lesion or mean pixel volume) was determined and groups (Negligible, Moderate, and High) were separated based upon numbers distribution. After imaging, lungs were fixed in Bouin's solution (Sigma), paraffin embedded, sectioned, and stained with hematoxylin and eosin (H&E) for histological evaluation. Images were acquired using a differential interference contrast-equipped Olympus IX81 inverted microscope and an Olympus DP71 digital color camera using Slidebook (v5.0) software. […] Lungs were resected, embedded in OCT, and frozen in liquid nitrogen.

[5] = target: T2, FAK Tyr-397 phosphorylation (Homo sapiens, UniProt Q05397); test: Anti-phospho-specific immunoblotting of FAK Tyr-397 in human breast carcinoma cells; format: cell-based
T2 construct: endogenous in cells; host or cells: MDA-MB-231 human breast carcinoma cells
Text: Immunoblotting: Protein extracts of cells were made using lysis buffer containing 1% Triton X-100, 1% sodium deoxycholate, and 0.1% SDS and were separated by 4-12% SDS-PAGE (sodium dodecyl sulfate polyacrylamide gel electrophoresis) and sequential immunoblotting performed as described in Mitra S K, Lim S T, Chi A, Schlaepfer D D. Intrinsic focal adhesion kinase activity controls orthotopic breast carcinoma metastasis via the regulation of urokinase plasminogen activator expression in a syngeneic tumor model. Oncogene 2006; 25:4429-40. Relative expression levels and phospho-specific antibody reactivity were measured by densitometry analyses of blots using Image J (version 1.42q). Inhibition of FAK and p130Cas tyrosine phosphorylation was quantified by calculating the ratio of pY397 FAK protein to total FAK. Similar analyses were performed for p130Cas using pY410 p130Cas and total p130Cas blot data.

4T1 tumors [6] = test: Subcutaneous mCherry 4T1 tumor growth in BALB/c mice; format: in vivo
Method: Detection of apoptosis in tumors: Fresh tumors were snap-frozen in Optimal Cutting Temperature (OCT) compound (Tissue Tek), thin sectioned ([…]) using a cryomicrotome (Leica 3050S) and mounted onto glass slides. Sections were fixed with 3% paraformaldehyde, permeabilized in PBS containing 0.1% Triton for 3 min, and blocked with 8% goat serum in PBS for 60 min at RT. For activated caspase-3 detection, sections were incubated with cleaved caspase-3 antibody (1:200 diluted in 2% goat serum in PBS) for 18 h at 4° C., washed with PBS, and incubated with fluorescein isothiocyanate conjugated anti-rabbit and TOPRO-3 (blue) for DNA detection. Sections were imaged on a Nikon Eclipse C1 confocal microscope with a 1.4 NA 60× oil objective, with a 30 μm pinhole setting, and analyzed using EZ-C1 3.50 software (Nikon). Tumor apoptosis was also measured by terminal deoxynucleotidyl transferase dUTP nick end labeling (TUNEL) staining using the tetramethylrhodamine (TMR) kit as per the manufacturer's instructions (Roche). Bright field and fluorescent images of whole tumor sections were obtained using Zeiss M2-Bio Stereo microscope equipped with INFINITY1-3C: digital color camera and a 4× objective.
Mouse tumor studies: Six to eight week old female C57B16 and BALB/c mice were obtained from Harlan Laboratories (Indianapolis, Ind.) and housed in pathogen-free conditions, according to the guidelines of the Association for the Assessment and Accreditation for Laboratory Animal Care, International. All in vivo studies were carried out under an approved institutional experimental animal care and use protocol. Growing tumor cells were harvested by limited trypsinization, washed in PBS, and counted using a ViCell XR (Beckman) prior to injection. Cell viability as measured by trypan blue exclusion was >95%. For subcutaneous tumor growth, 1×10^6 mCherry-labeled 4T1 cells in 100 μl PBS were injected into the hindflank of Balb/C mice. […] Control animals received PEG400:PBS injections and at 13 days, tumors were imaged in situ using an Olympus OV100 Intravital Fluorescence Molecular Imaging System, tumors were excised and weighed, half was frozen in OCT, and half was solubilized in protein lysis buffer for FAK phosphorylation analyses. For ID8 ovarian carcinoma tumor growth, 0.8 mL of 1×10^7 ID8 cells in PBS was intraperitoneal injected into C57B16 mice. […] Administration continued ad libitum for 30 days after which mice were euthanized, ascites fluid collected, cells obtained by centrifugation (2000 rpm for 5 min), cell volume measured by pipet, and then solubilized in protein lysis buffer for immunoblotting analyses.

Solubility in water = format: physicochemical; settings: HCl salt
Text: 10, 2008, and published as WO 2008/115369.

[7] = 0.5 mg/ml ad libitum in drinking water
[8] = 150 mg/kg p.o. b.i.d. vs vehicle
[9] = 150 mg/kg p.o., b.i.d., 15 days
[10] = oral, 4T1 and MDA-MB-231 orthotopic models

T2 sequence (Q05397 whole entry): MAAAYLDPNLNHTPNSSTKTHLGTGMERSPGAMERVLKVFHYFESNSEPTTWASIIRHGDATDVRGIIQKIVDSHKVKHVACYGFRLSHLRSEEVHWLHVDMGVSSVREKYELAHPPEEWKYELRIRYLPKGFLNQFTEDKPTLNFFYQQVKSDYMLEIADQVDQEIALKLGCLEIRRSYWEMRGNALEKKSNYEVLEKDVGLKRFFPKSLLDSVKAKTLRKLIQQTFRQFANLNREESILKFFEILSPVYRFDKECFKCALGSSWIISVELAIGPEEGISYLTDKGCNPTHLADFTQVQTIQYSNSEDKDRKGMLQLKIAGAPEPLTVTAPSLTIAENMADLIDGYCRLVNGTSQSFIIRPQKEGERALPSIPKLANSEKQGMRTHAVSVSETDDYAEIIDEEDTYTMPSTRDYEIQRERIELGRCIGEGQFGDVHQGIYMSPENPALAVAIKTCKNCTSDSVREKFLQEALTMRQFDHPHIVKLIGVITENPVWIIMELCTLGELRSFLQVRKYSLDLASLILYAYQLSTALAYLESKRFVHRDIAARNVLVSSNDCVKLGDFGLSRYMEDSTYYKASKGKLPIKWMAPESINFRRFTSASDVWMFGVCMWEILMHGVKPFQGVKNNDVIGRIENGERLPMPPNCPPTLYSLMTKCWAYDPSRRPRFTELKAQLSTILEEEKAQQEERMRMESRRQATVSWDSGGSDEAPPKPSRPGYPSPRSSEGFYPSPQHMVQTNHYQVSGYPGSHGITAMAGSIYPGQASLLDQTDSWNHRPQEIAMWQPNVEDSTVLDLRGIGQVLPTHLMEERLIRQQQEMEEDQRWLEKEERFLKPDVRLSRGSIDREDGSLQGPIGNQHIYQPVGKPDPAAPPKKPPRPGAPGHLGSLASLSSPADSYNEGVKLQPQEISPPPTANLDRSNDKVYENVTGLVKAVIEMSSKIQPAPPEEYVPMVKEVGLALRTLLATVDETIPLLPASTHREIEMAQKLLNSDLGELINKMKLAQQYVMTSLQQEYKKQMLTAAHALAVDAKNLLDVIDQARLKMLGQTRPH

CNC(=O)c1ccccc1Nc1cc(Nc2ccc(N3CCOCC3)cc2OC)ncc1C(F)(F)F [PND-1186]
Src pY416 and Src expression levels in spheroids (c-Src (pY416 Src); PND-1186-treated 3D spheroids): no change | Src pY416 phosphorylation (c-Src (pY416 Src); adherent 4T1 cells, 1 h, PND-1186 to 1 μM): did not affect c-Src activity | concentration at 12 h ([1]; plasma, read-out: average concentration in plasma at 12 h): 15.1 µM | concentration at 12 h ([1]; tumor, read-out: average concentration in tumors at 12 h): 10400 ng/g | duration of tumor FAK pY397 inhibition ([2]; 30 mg/kg i.p.): 3 to 6 h | maximal PND-1186 in tumors ([2]; 30 mg/kg i.p.): 0.75 µg/g | time to maximal PND-1186 in tumors ([2]; 30 mg/kg i.p.): ≤ 1 h | time to maximal plasma levels ([2]; 30 mg/kg i.p.): ≤ 15 min | plasma levels at 12 h ([2]; 30 mg/kg i.p., 12 h): 0.1 µM | tumor FAK pY397 phosphorylation at 12 h ([2]; 30 mg/kg i.p., 12 h): not significantly inhibited | tumor PND-1186 levels by 12 h ([2]; 30 mg/kg i.p., 12 h): 0.04 µg/g | maximal plasma levels ([2]; 30 mg/kg i.p.): 35 µM | time to maximal PND-1186 in tumors ([2]; 100 mg/kg i.p.): ≤ 1 h | time to maximal plasma levels ([2]; 100 mg/kg i.p.): ≤ 30 min | plasma levels at 12 h ([2]; 100 mg/kg i.p., 12 h): 1.1 µM | p130Cas Tyr-410 phosphorylation (pY410Cas) in tumors ([2]; 100 mg/kg i.p., by 3 h): significantly reduced p130Cas Tyr-410 phosphorylation | sustained inhibition of tumor FAK Tyr-397 phosphorylation ([2]; 100 mg/kg i.p., for 12 h): > 60% | maximal plasma levels ([2]; 100 mg/kg i.p.): 117 µM | maximal PND-1186 in tumors ([2]; 100 mg/kg i.p., maintained up to 12 h): 16.1 µg/g | TNFα-triggered IL-6 release [3]: inhibited IL-6 release in a dose-dependent manner | average concentration in plasma (4T1 tumors [4]; [7]): 1.0 µM | average concentration in tumors (4T1 tumors [4]; [7]): 0.52 µg/g | tumor growth and tumoral FAK-p130Cas phosphorylation (4T1 tumors [4]; [7]): significantly decreased tumor growth and tumoral FAK-p130Cas phosphorylation | decrease in CD45 tumor-associated staining (4T1 tumors [4]; 150 mg/kg): 2.8 fold | tumor vasculature (anti-CD31 staining) (4T1 tumors [4]; 150 mg/kg p.o. b.i.d.): no major vascular differences | increase of TUNEL staining in breast fat pad tumors (4T1 tumors [4]; [8]): 2.8 fold | tumor volume by Day 7 (4T1 tumors [4]; [8]): significantly reduced tumor volume | reduction of final tumor weight (4T1 tumors [4]; 150 mg/kg p.o. b.i.d., 16 days): 3.1 fold | total body weight (4T1 tumors [4]; 150 mg/kg p.o. b.i.d., 16 days): without affects on total body weight | orthotopic and syngeneic breast carcinoma tumor growth and spontaneous metastasis to lungs (4T1 tumors [4]; 150 mg/kg p.o. bid): significantly inhibited | lung metastases by H&E staining of lung sections (4T1 tumors [4]; [9]): detectable 4T1 lung metastases in control but not PND-1186-treated mice | mice with high lung metastatic burden (4T1 tumors [4]; [9]): no mice with a high metastatic burden | mice with negligible lung metastases (4T1 tumors [4]; [9]): 7/12 | tumor histology (4T1 tumors [4]; ad libitum PND-1186): necrotic regions at the tumor core, increased TUNEL staining, and decreased leukocyte infiltrate | FAK pY397 and p130Cas pY410 phosphorylation in primary tumors (4T1 tumors [4]; ad libitum oral): sufficient to inhibit both FAK pY397 and p130Cas pY410 phosphorylation | mice with negligible to moderate lung metastatic burden (4T1 tumors [4]; ad libitum oral): 13/15 | pY118 paxillin phosphorylation in tumors (4T1 tumors [4]; ad libitum oral): inhibited pY118 paxillin phosphorylation | pY416 Src, pY402 Pyk2, pS473 Akt, pT308 Akt phosphorylation in tumors (4T1 tumors [4]; ad libitum oral): not pY416 Src nor pY402 Pyk2, pS473 Akt, or pT308 Akt phosphorylation | spleen size (4T1 tumors [4]; ad libitum oral): normal size | inhibition of final tumor mass (4T1 tumors [4]; ad libitum oral, Day 22): > 1.8 fold | toxicity or weight loss (4T1 tumors [4]; ad libitum oral, Day 22): without toxicity or weight loss | tumor-associated inflammatory cell infiltration and splenomegaly (4T1 tumors [4]; mice with syngeneic 4T1 tumors): significantly decreased tumor-associated inflammatory cell infiltration and splenomegaly | tumor-associated splenomegaly (4T1 tumors [4]; mouse, in vivo): reduced tumor-associated splenomegaly | anti-tumor and anti-metastatic effects (4T1 tumors [4]; [10]): significant anti-tumor and anti-metastatic effects | tolerability of oral dosing (4T1 tumors [4]; [10]): without animal morbidity, death or weight loss | spleen appearance (4T1 tumors [4]; tumor-bearing PND-1186-treated mice): healthy and indistinguishable from non-treated, non-tumor bearing mice | IC50 [5]: ~100 nM | final tumor weight (4T1 tumors [6]; 30 mg/kg b.i.d., 5 days): slightly reduced final tumor weight but was not significantly different | cleaved caspase-3 staining in tumors (4T1 tumors [6]; 100 mg/kg): elevated cleaved caspase-3 staining | reduction of final tumor weight (4T1 tumors [6]; 100 mg/kg b.i.d., 5 days): 2 fold | tumor TUNEL staining (4T1 tumors [6]; 30 and 100 mg/kg b.i.d., vs vehicle): significantly increased tumor TUNEL staining | solubility (Solubility in water): 22 mg/mL
